Literature values as cited in patent publication US9714250B2, “Crystalline forms of temozolomide and the method for preparing same” (Jiangsu Tasly Diyi Pharmaceutical Co., Ltd., priority 2013, dated 2017).

Settings: heated to approximately 30° C.; in US20050187206; cited from earlier work

Cn1nnc2c(C(N)=O)ncn2c1=O [Form I, Temozolomide]
Crystalline form transformation on heating: transformed into crystalline Form II
